In patent US5326882A, “Chemiluminescent 3-(substituted Adamant-2'-Ylidene) 1,2-dioxetanes” (Tropix, Inc., priority 1992, dated 1994):

How the values were obtained:
[1] = target: T1, alkaline phosphatase-labeled DNA probe (Bos taurus, UniProt P19111); test: Alkaline phosphatase-labeled DNA probe detection in membrane with and without BDMQ blocking step (Example XV); conditions: for Detection limit (in picograms DNA) 5. min. exp.: five minute exposure 40 minutes after dioxetane addition; for Detection limit (in picograms DNA) 1 min. exp.: one minute exposure 77 minutes after dioxetane addition
T1 construct: purchased Tropix, Inc
Experimental: pBr 322 plasmid (4700 bp) was subjected to a nick translation process using a Trans-Light kit (Tropix, Inc., Bedford, Mass.) to generate a mixture of biotinylated single stranded polynucleotides of 200-2000 bps in length.
This mixture was dotted onto a dry BIODYNE A membrane as five parallel columns of dots of the following concentrations:
The membrane was subjected to ultraviolet irradiation (UVP Mineral Light; UVP, San Gabriel, Calif.) for 3 minutes to fix the DNA to the surface of the membrane, then air dried. Next, the membrane was blocked in 0.2% casein/0.1% Tween 20 detergent in PBS for 1 hour, following which 1/5000 diluted avidin-alkaline phosphatase conjugate (Tropix, Inc.) in 0.2% casein in PBS was added. The membrane was then incubated for 30 minutes, washed three times (for 5 minutes each time) in 0.2% casein/0.1% Tween 20 detergent in PBS and washed once for five minutes in aqueous 0.1M diethanolamine containing 1 mm magnesium chloride and 0.02% sodium azide, pH 10.0 (substrate buffer).
Next, the five columns of rows of dots 1-5 were individually cut from the membrane ("strips 1-5"), as were the five columns of rows of dots 6-10 ("strips 6-10"). Strips 1-5 were washed with substrate buffer for 30 minutes. Strips 6-10 were blocked in 0.1% BDMQ in substrate buffer for 30 minutes. Both sets of strips were then incubated for 5 minutes in substrate buffer, then individually incubated for five minutes in aqueous solutions (0.25 mM) of 1,2-dioxetanes as indicated below:
All strips were then placed in camera luminometers and exposed on Polaroid Type 612 instant black and white film.

alkaline phosphatase [2] = target: T2, alkaline phosphatase (Bos taurus, UniProt P19111); test: Half-time to plateau at low alkaline phosphatase concentration (Example XLI); type: biochemical; conditions: 0.4 mM dioxetane at pH 10.0, 31.5° C., 2.53 × 10^-13 M alkaline phosphatase
alkaline phosphatase [3] = target: T2, alkaline phosphatase; test: Alkaline phosphatase detection limits, LabSystems Luminoskan (Example XXV); type: biochemical
Experimental: The detection means for alkaline phosphatase with different chemiluminescent 1,2-dioxetane substrates were determined as follows: Duplicates of serial dilutions (1 to 3) of alkaline phosphates were incubated at room temperature with 0.4 mM dioxetane in 0.1 M diethanolamine, 1 mM MgCl2, pH 10.0, containing 1 mg/ml of either of the polymeric enhancers Enhancer 1 or Enhancer 2, in […].
Following either a 5 or a 20 minute incubation with a substrate, the chemiluminescence intensity was measured as a 5 second integrated Relative Light Units (RLU) and plotted as in FIG. 10. […] The alkaline phosphatase concentrations at twice background were used as the detection limits in Table 5.
The luminometer used in this example was LabSystems Luminoskan microtiter plate reader.

[4] = BDMQ blocking step, listed as OH-Adamant-2'-ylidene (B isomer)
[5] = SAPPHIRE II, 5 MINUTE INCUBATION
[6] = SAPPHIRE II, 20 MINUTE INCUBATION
[7] = BDMQ blocking step, listed as OH-Adamant-2'-ylidene (A isomer)

T1 sequence (P19111 20-506 limits assumed): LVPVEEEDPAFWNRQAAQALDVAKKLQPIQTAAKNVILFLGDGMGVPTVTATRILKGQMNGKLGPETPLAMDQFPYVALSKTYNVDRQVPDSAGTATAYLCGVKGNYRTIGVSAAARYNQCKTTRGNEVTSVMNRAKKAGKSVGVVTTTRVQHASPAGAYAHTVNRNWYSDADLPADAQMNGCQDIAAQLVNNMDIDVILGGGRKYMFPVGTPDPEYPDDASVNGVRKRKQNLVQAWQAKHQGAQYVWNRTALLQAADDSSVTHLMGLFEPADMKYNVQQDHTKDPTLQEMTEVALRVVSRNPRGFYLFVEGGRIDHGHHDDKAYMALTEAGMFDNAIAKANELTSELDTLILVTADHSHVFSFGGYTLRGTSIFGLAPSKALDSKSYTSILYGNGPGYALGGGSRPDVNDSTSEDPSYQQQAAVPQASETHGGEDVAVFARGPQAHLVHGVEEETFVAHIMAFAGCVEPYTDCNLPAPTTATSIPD
T1 sequence (P02701 25-152 partner): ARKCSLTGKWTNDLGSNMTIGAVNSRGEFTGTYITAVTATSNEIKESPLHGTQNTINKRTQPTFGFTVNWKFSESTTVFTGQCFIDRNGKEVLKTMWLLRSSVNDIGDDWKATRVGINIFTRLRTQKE
T2 sequence (P19111 20-506 limits assumed): as the sequence (P19111 20-506 limits assumed) above

Compound | Detection limit (in picograms DNA) 5. min. exp. [1, 4] [picograms DNA] | Detection limit (in picograms DNA) 1 min. exp. [1, 4] [picograms DNA] | Detection limit (in picograms DNA) 5. min. exp. ([1]; no BDMQ blocking step) [picograms DNA] | Detection limit (in picograms DNA) 1 min. exp. ([1]; no BDMQ blocking step, listed as OH-Adamant-2'-ylidene (B isomer)) [picograms DNA] | HALF-TIME TO PLATEAU (min.) AL LOW ALK PHOS CONCENTRATION (alkaline phosphatase [2]; listed as HO-AMPPD-B) [min] | Detection limit (in picograms DNA) 5. min. exp. ([1]; BDMQ blocking step) [picograms DNA] | Detection limit (in picograms DNA) 1 min. exp. ([1]; BDMQ blocking step) [picograms DNA] | Detection limit (in picograms DNA) 1 min. exp. ([1]; no BDMQ blocking step) [picograms DNA] | Alkaline phosphatase detection limit (at 2× background) (alkaline phosphatase [3]; [5]) [pM] | Alkaline phosphatase detection limit (at 2× background) (alkaline phosphatase [3]; [6]) [pM] | Alkaline phosphatase detection limit (at 2× background) (alkaline phosphatase [3]; SAPPHIRE, 5 MINUTE INCUBATION) [pM] | Alkaline phosphatase detection limit (at 2× background) (alkaline phosphatase [3]; SAPPHIRE, 20 MINUTE INCUBATION) [pM] | HALF-TIME TO PLATEAU (min.) AL LOW ALK PHOS CONCENTRATION (alkaline phosphatase [2]) [min] | Detection limit (in picograms DNA) 5. min. exp. [1, 7] [picograms DNA] | Detection limit (in picograms DNA) 1 min. exp. [1, 7] [picograms DNA] | Detection limit (in picograms DNA) 1 min. exp. ([1]; no BDMQ blocking step, listed as OH-Adamant-2'-ylidene (A isomer)) [picograms DNA] | HALF-TIME TO PLATEAU (min.) AL LOW ALK PHOS CONCENTRATION (alkaline phosphatase [2]; listed as HO-AMPPD-A) [min]
COC1(c2cccc(OP(=O)(O)O)c2)OOC12C1CC3CC2CC(O)(C3)C1 (single isomer, unassigned) [B-OH-AMPPD, disodium 3-(4-methoxyspiro-[1,2-dioxetane-3,2'-(5'-hydroxy)tricyclo[3.3.1.1^3,7]decan]-4-yl)phenyl phosphate] | 1.250 | 5.000 | 5.000 | 20.000 | 1.03 | – | – | – | – | – | – | – | – | – | – | – | –
COC1(c2cccc(OP(=O)(O)O)c2)OOC12C1CC3CC2CC(Cl)(C3)C1 (stereo not shown) [Cl-AMPPD, disodium 3-(4-methoxyspiro-[1,2-dioxetane-3,2'-(5'-chloro)tricyclo[3.3.1.1^3,7]decan]-4-yl) phenyl phosphate] | – | – | 1.250 | – | – | 0.313 | 0.313 | 1.250 | 0.0008 | 0.00043 | 0.0014 | 0.0005 | – | – | – | – | –
COC1(c2cccc(OP(=O)(O)O)c2)OOC12C1CC3CC(C1)CC2C3 (stereo not shown) [AMPPD, 3-(4-methoxyspiro[1,2-dioxetane-3,2'-triyclo[3.3.1.1^3,7]decan]-4-yl)phenyl phosphate, reference compound] | – | – | 2.500 | – | – | 0.625 | 1.250 | 5.000 | 0.0025 | 0.0011 | 0.0038 | 0.0014 | 1.97 | – | – | – | –
COC1(c2cccc(OP(=O)(O)O)c2)OOC12C1CC3CC2CC(O)(C3)C1 (single isomer, unassigned) [A-OH-AMPPD, disodium 3-(4-methoxyspiro-[1,2-dioxetane-3,2'-(5'-hydroxy)tricyclo[3.3.1.1^3,7]decan]-4-yl)phenyl phosphate] | – | – | 5.000 | – | – | – | – | – | 0.0014 | 0.00031 | 0.0031 | 0.0011 | – | 0.625 | 2.500 | 10.000 | 0.93
